# From US20240368157A1, “FORMS AND COMPOSITIONS OF A JAK2 INHIBITOR” (Ajax Therapeutics, Inc., priority 2023, published 2024)
# What was measured:
# [1] = biological target: T1, JAK2 (JH1domain-catalytic, Y1007F, Y1008F) kinase (Homo sapiens, UniProt O60674, Y1007F/Y1008F); experiment: JAK2 Binding Assay
# T1 construct: JAK2 (JH1domain-catalytic, Y1007F, Y1008F) kinase was expressed as N-terminal fusion; made in house; host or cells: transiently transfected HEK293 cells
# Method: JAK2 (JH1domain-catalytic, Y1007F, Y1008F) kinase was expressed as N-terminal fusion to the DNA binding domain of NFkB in transiently transfected HEK293 cells and subsequently tagged with DNA for qPCR detection. Streptavidin-coated magnetic beads were treated with biotinylated small molecule ligands for 30 minutes at room temperature to generate affinity resins for kinase assays. The liganded beads were blocked with excess biotin and washed with blocking buffer (SeaBlock (Pierce), 1% BSA, 0.05% Tween 20, 1 mmol/L DTT) to remove unbound ligand and to reduce nonspecific phage binding. Binding reactions were assembled by combining kinases, liganded affinity beads, and test compounds in 1× binding buffer (1×PBS, 0.05% Tween 20, 0.1% BSA, 1 mmol/L DTT). Test compound was prepared as 111× stocks in 100% DMSO and directly diluted into the assay wells. All reactions were performed in polypropylene 384-well plates in a final volume of 0.02 mL. The assay plates were incubated at room temperature with shaking for 1 hour and the affinity beads were washed with wash buffer (1×PBS, 0.05% Tween 20). The beads were then re-suspended in elution buffer (1×PBS, 0.05% Tween 20, 0.5 μmol/L non-biotinylated affinity ligand) and incubated at room temperature with shaking for 30 minutes. The kinase concentration in the eluate was measured by qPCR.
# JAK1 = biological target: T2, JAK1 (Homo sapiens, UniProt P23458); experiment: JAK Family Selectivity Assay (JAK1 vs JAK2 binding affinity); details: selectivity over JAK2
# T2 construct: made in house; host or cells: E. coli (BL21-derived, T7 phage display) or HEK-293
# Method: (§1) Provided compounds are evaluated for selectivity by comparing their JAK2 binding affinity (Kd) in the above JAK2 Binding Assay with their binding affinity (Kd) for one or more other kinases. Binding affinity for other kinases is determined as follows: Kinase-tagged T7 phage strains are prepared in an E. coli host derived from the BL21 strain. E. coli are grown to log-phase and infected with T7 phage and incubated with shaking at 32° C. until lysis. The lysates are centrifuged and filtered to remove cell debris. The remaining kinases are produced in HEK-293 cells and subsequently tagged with DNA for qPCR detection. Streptavidin-coated magnetic beads are treated with biotinylated small molecule ligands for 30 minutes at room temperature to generate affinity resins for kinase assays. The liganded beads are blocked with excess biotin and washed with blocking buffer (SeaBlock (Pierce), 1% BSA, 0.05% Tween 20, 1 mM DTT) to remove unbound ligand and to reduce non-specific binding. Binding reactions are assembled by combining kinases, liganded affinity beads, and test compounds in 1× binding buffer (20% SeaBlock, 0.17×PBS, 0.05% Tween 20, 6 mM DTT). Test compounds are prepared as 111× stocks in 100% DMSO. Kds are determined using an 11-point 3-fold compound dilution series with three DMSO control points. […] The kinase concentration in the eluates is measured by qPCR. […]
# TYK2 = biological target: T3, TYK2 (Homo sapiens, UniProt P29597); experiment: JAK Family Selectivity Assay (TYK2 vs JAK2 binding affinity); details: selectivity over JAK2
# T3 construct: made in house; host or cells: E. coli (BL21-derived, T7 phage display) or HEK-293
# Method: as §1
# Kinetic Solubility Assay = format: physicochemical; details: aqueous buffer, kinetic from dmso stock, PBS, RT, pH of the reported value not stated (method: pH 4.0 and pH 7.4)
# Method: Stock solutions of test compounds are prepared in DMSO at the concentration of 10 mM, and a stock solution of control compound is prepared in DMSO at the concentration of 30 mM. Diclofenac is used as positive control in the assay. 30 μL stock solution of each compound is placed into their a 96-well rack, followed by adding 970 μL of PBS at pH 4.0 and pH 7.4 into each vial of the cap-less solubility sample plate. This study is performed in duplicate. One stir stick is added to each vial and then vials are sealed using a molded PTDE/SIL 96-Well Plate Cover. The solubility sample plate is transferred to the Thermomixer comfort plate shaker and incubated at RT for 2 hours with shaking at 1100 rpm. After 2 hours incubation, stir sticks are removed using a big magnet and all samples from the solubility sample plate are transferred into the filter plate. All the samples are filtered by vacuum manifold. The filtered samples are diluted with methanol. Samples are analyzed by LC-MS/MS and quantified against a standard of known concentration in DMSO using LC coupled with Mass spectral peak identification and quantitation. The solubility values of the test compounds are calculated as follows, wherein INJ VOL is injection volume, DF is dilution factor, and STD is standard: […]
# [2] = Interconversion slurry experiments; details: slurry EtOH:H2O (90:10), 65° C.; material with small peak at ˜8.0 °2θ
# Method: Mixtures of Form H and Form I with Form B were utilized in these interconversion slurry experiments. […] The interconversion slurries were performed at ambient and elevated (65° C.) temperatures in various solvents and solvent mixtures.
# T2 sequence (P23458 whole entry): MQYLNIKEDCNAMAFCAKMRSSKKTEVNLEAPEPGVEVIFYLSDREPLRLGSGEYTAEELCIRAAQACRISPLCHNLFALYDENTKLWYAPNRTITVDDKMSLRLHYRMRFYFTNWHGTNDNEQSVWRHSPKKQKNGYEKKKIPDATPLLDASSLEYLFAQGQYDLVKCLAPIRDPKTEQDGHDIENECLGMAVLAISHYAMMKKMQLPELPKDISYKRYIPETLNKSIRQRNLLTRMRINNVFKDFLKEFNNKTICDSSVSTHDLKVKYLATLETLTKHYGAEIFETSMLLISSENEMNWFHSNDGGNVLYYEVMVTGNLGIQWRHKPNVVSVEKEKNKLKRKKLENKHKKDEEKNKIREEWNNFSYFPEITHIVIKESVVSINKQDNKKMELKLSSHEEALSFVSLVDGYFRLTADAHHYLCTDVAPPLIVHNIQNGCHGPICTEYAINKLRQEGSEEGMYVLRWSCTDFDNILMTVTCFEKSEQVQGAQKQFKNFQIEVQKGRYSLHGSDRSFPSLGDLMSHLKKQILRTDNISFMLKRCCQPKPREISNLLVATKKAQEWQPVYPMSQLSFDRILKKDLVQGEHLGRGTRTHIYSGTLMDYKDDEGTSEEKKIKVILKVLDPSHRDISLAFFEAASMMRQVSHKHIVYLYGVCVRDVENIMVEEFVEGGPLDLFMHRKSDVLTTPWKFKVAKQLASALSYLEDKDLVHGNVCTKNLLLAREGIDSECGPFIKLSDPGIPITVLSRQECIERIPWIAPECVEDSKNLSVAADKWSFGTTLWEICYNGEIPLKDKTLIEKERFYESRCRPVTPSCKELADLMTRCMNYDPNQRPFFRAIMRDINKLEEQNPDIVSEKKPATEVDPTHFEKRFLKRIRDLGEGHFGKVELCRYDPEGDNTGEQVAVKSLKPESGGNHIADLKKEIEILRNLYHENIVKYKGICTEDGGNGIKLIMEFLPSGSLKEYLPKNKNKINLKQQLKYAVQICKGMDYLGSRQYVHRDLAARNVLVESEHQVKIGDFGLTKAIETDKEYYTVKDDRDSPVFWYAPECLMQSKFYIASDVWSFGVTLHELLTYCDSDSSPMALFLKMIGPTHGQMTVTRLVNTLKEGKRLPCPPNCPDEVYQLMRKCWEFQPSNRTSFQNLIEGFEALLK
# T3 sequence (P29597 whole entry): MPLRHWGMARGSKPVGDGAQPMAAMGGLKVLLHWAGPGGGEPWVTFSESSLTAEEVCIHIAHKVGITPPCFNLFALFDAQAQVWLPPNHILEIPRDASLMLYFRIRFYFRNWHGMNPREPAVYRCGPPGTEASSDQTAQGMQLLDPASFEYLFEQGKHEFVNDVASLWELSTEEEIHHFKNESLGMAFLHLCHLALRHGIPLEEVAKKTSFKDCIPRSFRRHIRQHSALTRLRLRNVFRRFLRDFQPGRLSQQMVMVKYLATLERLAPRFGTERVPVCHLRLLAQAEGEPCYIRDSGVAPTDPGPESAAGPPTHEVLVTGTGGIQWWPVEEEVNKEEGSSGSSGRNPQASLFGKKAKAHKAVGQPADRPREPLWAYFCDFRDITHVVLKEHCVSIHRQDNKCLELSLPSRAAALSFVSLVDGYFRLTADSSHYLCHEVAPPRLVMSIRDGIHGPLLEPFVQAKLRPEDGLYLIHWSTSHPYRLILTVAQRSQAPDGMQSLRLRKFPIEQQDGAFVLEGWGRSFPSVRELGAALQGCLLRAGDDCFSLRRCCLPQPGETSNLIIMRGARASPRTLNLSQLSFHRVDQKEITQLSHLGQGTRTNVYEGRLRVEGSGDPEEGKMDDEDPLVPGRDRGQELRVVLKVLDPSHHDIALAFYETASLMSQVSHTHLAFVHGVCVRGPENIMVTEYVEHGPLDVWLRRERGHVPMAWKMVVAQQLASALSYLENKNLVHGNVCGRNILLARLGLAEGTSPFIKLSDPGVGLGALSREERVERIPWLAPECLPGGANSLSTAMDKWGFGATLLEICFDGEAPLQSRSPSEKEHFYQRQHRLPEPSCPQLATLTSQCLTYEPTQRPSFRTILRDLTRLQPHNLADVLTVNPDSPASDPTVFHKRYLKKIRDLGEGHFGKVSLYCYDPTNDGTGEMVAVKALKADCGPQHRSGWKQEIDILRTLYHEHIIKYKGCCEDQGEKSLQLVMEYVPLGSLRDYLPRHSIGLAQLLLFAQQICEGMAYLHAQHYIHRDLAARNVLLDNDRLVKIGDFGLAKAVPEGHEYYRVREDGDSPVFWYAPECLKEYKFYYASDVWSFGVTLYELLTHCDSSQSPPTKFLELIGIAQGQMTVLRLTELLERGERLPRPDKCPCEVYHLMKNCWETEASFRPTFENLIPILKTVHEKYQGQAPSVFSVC
# T1 sequence (O60674 849-1124 Y1007F/Y1008F limits assumed): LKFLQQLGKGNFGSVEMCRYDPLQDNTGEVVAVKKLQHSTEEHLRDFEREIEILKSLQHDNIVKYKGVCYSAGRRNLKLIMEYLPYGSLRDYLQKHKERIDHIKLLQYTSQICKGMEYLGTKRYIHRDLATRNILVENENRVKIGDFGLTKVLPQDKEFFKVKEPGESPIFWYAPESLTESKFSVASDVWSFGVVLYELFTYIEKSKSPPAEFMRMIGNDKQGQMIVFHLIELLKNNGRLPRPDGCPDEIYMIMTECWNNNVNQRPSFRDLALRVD
Kd [1] [nM],JAK1/JAK2 Kd/Kd ratio (JAK1),TYK2/JAK2 Kd/Kd ratio (TYK2),solubility at 2 h (Kinetic Solubility Assay) [µM],degradation by HPLC analysis [2],Structure (SMILES)
< 10,B (Kd/Kd ratio<1000 and ≥300),C (Kd/Kd ratio<300 and ≥100),9 to 100,small amount of degradation,"CN(C)C(=O)Nc1cc(Oc2cnc3nc(Nc4cc(C(F)(F)F)cn(C)c4=O)n(C)c3c2C#N)ccn1 [Compound 1, 3-(4-((7-cyano-1-methyl-2-((1-methyl-2-oxo-5-(trifluoromethyl)-1,2-dihydropyridin-3-yl)amino)-1H-imidazo[4,5-b]pyridin-6-yl)oxy)pyridin-2-yl)-1,1-dimethylurea]"
,C (Kd/Kd ratio<300 and ≥100),C (Kd/Kd ratio<300 and ≥100),100 to 200,,"CCN1CCN(Cc2ccc(Nc3nc4ccc(Oc5ccnc(NC(C)=O)c5)cc4n3C)cc2C(F)(F)F)CC1 [Compound R-1, reference compound]"
